From US20240382465A1, “AROMATIC ACETYLENE DERIVATIVE, AND PREPARATION METHOD THEREFOR AND USE THEREOF” (priority 2021, published 2024) come the findings set out here.

The structures appear in SMILES notation. Converted amounts (≈) assume the structure as drawn. Where two headings read alike, the source gives them in different places.

Assay [1] concerns the target recombinant Pseudomonas aeruginosa LpxC (Pseudomonas aeruginosa (strain ATCC 15692 / DSM 22644 / CIP 104116 / JCM 14847 / LMG 12228 / 1C / PRS 101 / PAO1), UniProt P47205). Put plainly: Inhibition of LpxC enzymatic activity (fluorescamine assay). In kind it is biochemical. On the procedure:
The degree of inhibition of the enzymatic activity of recombinant Pseudomonas aeruginosa LpxC by the compounds of the present disclosure under in vitro conditions was determined using the following method.
The experimental procedure is briefly described as follows: The test compound was first dissolved in DMSO to prepare a 10 mM stock solution. The reaction was carried out in a 96-well microplate. First, 20 μL of recombinant Pseudomonas aeruginosa LpxC (purchased from Signalway Antibody, product number AP74647-2) was added to each well, with a final concentration of 5 nM. 5 μL of the compound to be tested was then added, and the compound was diluted 4 times to 8 concentration points with a concentration range of 0.61-10,000 nM. 5 μL of LpxC substrate UDP-3-O—(R-3-hydroxydecanoyl)-GlcNAc (purchased from Biosynth Carbosynth, product number: mu75071) was added, with a final concentration of the substrate of 10 μM. The plate was incubated at 25° C. for 120 minutes. Then 20 μL of 2.0 mg/mL fluorescamine (purchased from sigmaaldrich, product number: F9015, solvent: 1:1 dimethylformamide/acetonitrile) was added to the reaction system, and mixed well for 10 minutes of reaction. Finally, 50 μL of 200 mM sodium phosphate buffer (pH 8.0) was added to terminate the reaction. Reading was carried out using a microplate reader (BMG), and the excitation and emission wavelengths were 390 and 495 nm respectively. By comparing with the fluorescence intensity ratio of the control group ([…]), the percentage inhibition rate of the compound at each concentration was calculated.

For a further assay, the system named is E. coli ATCC 25922. Put plainly: Antibacterial activity, MIC by broth microdilution (CLSI). The format is cell-based. As to conditions: Escherichia coli, ATCC25922; E. coli ATCC 25922, 35° C., 18 to 24 hours; read-out: MIC(E. coli). On the procedure: (§1) The in vitro minimum inhibitory concentration (MIC) was determined in accordance with the CLSI guidelines, and was measured using the broth microdilution method.
(§2) The experimental process is briefly described as follows: The test compound was dissolved in DMSO to prepare a […] stock solution, which was then prepared into 11 twice-diluted 100× high-concentration working solutions (the final concentration of the system was 64 μg/mL-0.06 μg/mL) using DMSO. The strains (K. pneumoniae ATCC13883 and E. coli ATCC 25922) frozen in −80° C. glycerol were inoculated into solid agar medium, placed in an incubator at 35° C. for 18-24 hours of incubation. After the preparation of strains was completed, an appropriate amount of solid plate culture was collected, resuspended in physiological saline, and mixed well. The bacterial suspension was adjusted to a suitable turbidity using a turbidity meter, containing approximately 1×10^8 cfu/mL bacteria. Then the bacterial suspension with the adjusted turbidity was diluted to a bacterial concentration of 5×10^5 cfu/ml using the culture medium for measurement, to complete the preparation of the inoculum solution. 198 μL of the inoculum solution was inoculated into a 96-well plate, and then added with 2 μL of a 100× high-concentration working solution of the compound. Then the 96-well plate was placed at 35° C. for 18 to 24 hours of incubation.
In general terms: Dilution methods test growth across graded concentrations, often in twofold steps.

The subject of a further assay is K. pneumoniae ATCC13883. The assay is described as above. Particulars: Klebsiella pneumoniae; K. pneumoniae ATCC13883, 35° C., 18 to 24 hours; read-out: MIC(K. Pneumoniae). The format is cell-based. How it is done:
as §1, §2

The mark [2] stands for this setting: recombinant P. aeruginosa LpxC 5 nM, substrate 10 μM, 25° C., 120 minutes, read-out: IC50.

One may read the IC50 as the concentration needed to halve the response being measured. In general, MIC refers to the smallest concentration in the dilution series that meets the test's criterion for growth inhibition. As to `C[C@H](O)c1nccn1Cc1cc(-c2ccc(C#Cc3ccc(CCC(=O)O)cc3)cc2)on1` [Example 27, (S)-3-(4-((4-(3-((2-(1-hydroxyethyl)-1H-imidazol-1-yl)methyl)isoxazol-5-yl)phenyl)ethynyl)phenyl)propanoic acid], the IC50 in assay [1] (setting [2]) was 4.25 nM. Further, the minimum inhibitory concentration (MIC) in the assay on E. coli ATCC 25922 is 1 µg/mL (≈ 2.27 µM); in the assay with K. pneumoniae ATCC13883, 2 µg/mL (≈ 4.53 µM).
As to `CCOC(=O)CC1CN(Cc2ccc(C#Cc3ccc(-c4cc(Cn5ccnc5[C@H](C)O)no4)cc3)cc2)C1` [Example 111, Ethyl (S)-2-(1-(4-((4-(3-((2-(1-hydroxyethyl)-1H-imidazol-1-yl)methyl)isoxazol-5-yl)phenyl)ethynyl)benzyl)azetidin-3-yl)acetate], the IC50 in assay [1] (setting [2]) worked out at 8.59 nM. The MIC in the assay on E. coli ATCC 25922 and in the assay on K. pneumoniae ATCC13883 was 1 µg/mL (≈ 1.91 µM) each time.
Consider `CNC(=O)c1ccc(C#Cc2ccc(-c3cc(Cn4ccnc4[C@H](C)O)no3)cc2)cc1` [Example 43, (S)-4-((4-(3-((2-(1-hydroxyethyl)-1H-imidazol-1-yl)methyl)isoxazol-5-yl)phenyl)ethynyl)-N-methylbenzamide], for which, in assay [1] (setting [2]), the concentration for half-maximal inhibition (IC50) amounted to 36.7 nM. The figures for the MIC in the assay with E. coli ATCC 25922 and in the assay on K. pneumoniae ATCC13883 were 1 µg/mL (≈ 2.34 µM) and 8 µg/mL (≈ 18.8 µM), respectively.
Take `C[C@H](O)c1nccn1Cc1cc(-c2ccc(C#Cc3ccc(C(O)CO)cc3)cc2)on1` (stereo partly drawn) [Example 30, 1-(4-((4-(3-((2-((S)-1-hydroxyethyl)-1H-imidazol-1-yl)methyl)isoxazol-5-yl)phenyl)ethynyl)phenyl)ethane-1,2-diol]: the IC50 in assay [1] (setting [2]) is 12.7 nM. The minimal inhibitory concentration (MIC) in the assay on E. coli ATCC 25922 came out at 0.5 µg/mL (≈ 1.16 µM); with K. pneumoniae ATCC13883, 1 µg/mL (≈ 2.33 µM).
`C[C@H](O)c1nccn1Cc1cc(-c2ccc(C#Cc3cccc(OCC#N)c3)cc2)on1` [Example 38, (S)-2-(3-((4-(3-((2-(1-hydroxyethyl)-1H-imidazol-1-yl)methyl)isoxazol-5-yl)phenyl)ethynyl)phenoxy)acetonitrile]: in assay [1] (setting [2]), the 50% inhibitory concentration (IC50) stood at 50.8 nM. In addition, the values for the MIC in the assay with E. coli ATCC 25922 and in the assay with K. pneumoniae ATCC13883 were 0.5 µg/mL (≈ 1.18 µM) and 1 µg/mL (≈ 2.36 µM), respectively.
As for `C[C@H](O)c1nccn1Cc1cc(-c2ccc(C#Cc3ccc(CO)nc3)cc2)on1` [Example 37, (S)-1-(1-((5-(4-((6-(hydroxymethyl)pyridin-3-yl)ethynyl)phenyl)isoxazol-3-yl)methyl)-1H-imidazol-2-yl)ethan-1-ol], the 50% inhibitory concentration (IC50) in assay [1] (setting [2]) turned out to be 3.55 nM. Moreover, the minimum inhibitory concentration (MIC) stood at 1 µg/mL (≈ 2.5 µM) in the assay on E. coli ATCC 25922 and 2 µg/mL (≈ 4.99 µM) with K. pneumoniae ATCC13883.
For the molecule `C[C@H](O)c1nccn1Cc1cc(-c2ccc(C#Cc3ccc(CNCC(N)=O)cc3)cc2)on1` [Example 35, (S)-2-((4-((4-(3-((2-(1-hydroxyethyl)-1H-imidazol-1-yl)methyl)isoxazol-5-yl)phenyl)ethynyl)benzyl)amino)acetamide], the half-inhibitory concentration (IC50) in assay [1] is 14.9 nM. In addition, the MIC came out at 0.25 µg/mL (≈ 0.549 µM) with E. coli ATCC 25922 and 0.5 µg/mL (≈ 1.1 µM) in the assay with K. pneumoniae ATCC13883.
`C[C@H](O)c1nccn1Cc1cc(-c2ccc(C#Cc3ccc(CNCCC(=O)O)cc3)cc2)on1` [Example 55, (S)-3-((4-((4-(3-((2-(1-hydroxyethyl)-1H-imidazol-1-yl)methyl)isoxazol-5-yl)phenyl)ethynyl)benzyl)amino)propanoic acid]: in assay [1] (setting [2]), the half-inhibitory concentration (IC50) was determined as 24.4 nM. Further, the minimal inhibitory concentration (MIC) with E. coli ATCC 25922 and with K. pneumoniae ATCC13883 was 8 µg/mL (≈ 17 µM) in each case.
On to `C[C@H](O)c1nccn1Cc1cc(-c2ccc(C#Cc3ccc(CNCCS(C)(=O)=O)nc3)cc2)on1` [Example 59, (S)-1-(1-((5-(4-((6-(((2-(methylsulfonyl)ethyl)amino)methyl)pyridin-3-yl)ethynyl)phenyl)isoxazol-3-yl)methyl)-1H-imidazol-2-yl)ethan-1-ol], for which the concentration for half-maximal inhibition (IC50) in assay [1] (setting [2]) came to 21.8 nM. The MIC was determined as 2 µg/mL (≈ 3.96 µM) in the assay with E. coli ATCC 25922 and 8 µg/mL (≈ 15.8 µM) with K. pneumoniae ATCC13883.
In the same order, the values of `C[C@H](O)c1nccn1Cc1cc(-c2ccc(C#Cc3ccc(CO)cc3)cc2)on1` [Example 46, (S)-1-(1-((5-(4-((4-(hydroxymethyl)phenyl)ethynyl)phenyl)isoxazol-3-yl)methyl)-1H-imidazol-2-yl)ethan-1-ol] are 23 nM, 0.25 µg/mL (≈ 0.626 µM) and 0.5 µg/mL (≈ 1.25 µM).
With `C[C@H](O)c1nccn1Cc1cc(-c2ccc(C#Cc3ccc(CN4CCC(O)CC4)cc3)cc2)on1` [Example 18, (S)-1-(4-((4-(3-((2-(1-hydroxyethyl)-1H-imidazol-1-yl)methyl)isoxazol-5-yl)phenyl)ethynyl)benzyl)piperidin-4-ol], the concentration for half-maximal inhibition (IC50) in assay [1] (setting [2]) stood at 9.84 nM. The minimal inhibitory concentration (MIC) in the assay with E. coli ATCC 25922 amounted to 2 µg/mL (≈ 4.14 µM); in the assay with K. pneumoniae ATCC13883 it was 4 µg/mL (≈ 8.29 µM).
In the case of `C[C@H](O)c1nccn1Cc1cc(-c2ccc(C#Cc3ccc(CN4CCOCC4)cc3)cc2)no1` [Example 3, (S)-1-(1-((3-(4-((4-(morpholinomethyl)phenyl)ethynyl)phenyl)isoxazol-5-yl)methyl)-1H-imidazol-2-yl)ethan-1-ol], in assay [1] (setting [2]), the IC50 was 24.9 nM. Also, the results for the MIC in the assay with E. coli ATCC 25922 and with K. pneumoniae ATCC13883 were 1 µg/mL (≈ 2.13 µM) and 2 µg/mL (≈ 4.27 µM), respectively.
For the molecule `C[C@H](O)c1nccn1Cc1cc(-c2ccc(C#Cc3ccc(CNCC(N)=O)nc3)cc2)on1` [Example 61], the IC50 in assay [1] (setting [2]) was determined as 74.2 nM. Besides, the minimum inhibitory concentration (MIC) in the assay with E. coli ATCC 25922 was 1 µg/mL (≈ 2.19 µM); in the assay with K. pneumoniae ATCC13883 it was 4 µg/mL (≈ 8.76 µM).
Regarding `C[C@H](O)c1nccn1Cc1cc(-c2ccc(C#Cc3ccncc3)cc2)on1` [Example 10, (S)-1-(1-((5-(4-(pyridin-4-ylethynyl)phenyl)isoxazol-3-yl)methyl)-1H-imidazol-2-yl)ethan-1-ol], the IC50 in assay [1] (setting [2]) came out at 30.4 nM. Further, the minimal inhibitory concentration (MIC) amounted to 0.5 µg/mL (≈ 1.35 µM) in the assay on E. coli ATCC 25922 and 1 µg/mL (≈ 2.7 µM) with K. pneumoniae ATCC13883.
As to `C[C@H](O)c1nccn1Cc1cc(-c2ccc(C#Cc3cccc(OCC(N)=O)c3)cc2)on1` [Example 64, (S)-2-(3-((4-(3-((2-(1-hydroxyethyl)-1H-imidazol-1-yl)methyl)isoxazol-5-yl)phenyl)ethynyl)phenoxy)acetamide], the IC50 in assay [1] (setting [2]) is 21.6 nM. The results for the minimal inhibitory concentration (MIC) with E. coli ATCC 25922 and with K. pneumoniae ATCC13883 were 4 µg/mL (≈ 9.04 µM) and 2 µg/mL (≈ 4.52 µM), respectively.
On to `CC(=O)c1ccc(C#Cc2ccc(-c3cc(Cn4ccnc4[C@H](C)O)no3)cc2)cc1` [Example 26, (S)-1-(4-((4-(3-((2-(1-hydroxyethyl)-1H-imidazol-1-yl)methyl)isoxazol-5-yl)phenyl)ethynyl)phenyl)ethan-1-one], for which, in assay [1] (setting [2]), the IC50 was found to be 71.7 nM. Also, the results for the MIC with E. coli ATCC 25922 and in the assay with K. pneumoniae ATCC13883 were 0.125 µg/mL (≈ 0.304 µM) and 0.5 µg/mL (≈ 1.22 µM), respectively.
For `C[C@H](O)c1nccn1Cc1cc(-c2ccc(C#Cc3ccc(OCCCN4CCOCC4)cc3)cc2)on1` [Example 75, (S)-1-(1-((5-(4-((4-(3-morpho-linopropoxy)phenyl)ethynyl)phenyl)isoxazol-3-yl)methyl)-1H-imidazol-2-yl)ethan-1-ol], the IC50 in assay [1] (setting [2]) came out at 61.2 nM. The MIC turned out to be 1 µg/mL (≈ 1.95 µM) with E. coli ATCC 25922 and 2 µg/mL (≈ 3.9 µM) in the assay on K. pneumoniae ATCC13883.
For the molecule `C[C@H](O)c1nccn1Cc1cc(-c2ccc(C#Cc3ccc(C(=O)N4CCN(C)CC4)cc3)cc2)on1` [Example 42, (S)-(4-((4-(3-((2-(1-hydroxyethyl)-1H-imidazol-1-yl)methyl)isoxazol-5-yl)phenyl)ethynyl)phenyl)(4-methylpiperazin-1-yl)methanone], the half-maximal inhibitory concentration (IC50) in assay [1] (setting [2]) is 5.78 nM. Besides, the MIC with E. coli ATCC 25922 came out at 2 µg/mL (≈ 4.04 µM); with K. pneumoniae ATCC13883 it was 4 µg/mL (≈ 8.07 µM).
On to `C[C@H](O)c1nccn1Cc1cc(-c2ccc(C#Cc3ccc(CN4CCS(=O)(=O)CC4)cc3)cc2)on1` [Example 50, (S)-4-(4-((4-(3-((2-(1-hydroxyethyl)-1H-imidazol-1-yl)methyl)isoxazol-5-yl)phenyl)ethynyl)benzyl)thiomorpholine 1,1-dioxide], for which, in assay [1] (setting [2]), the IC50 stood at 22.2 nM. The figures for the MIC in the assay on E. coli ATCC 25922 and in the assay with K. pneumoniae ATCC13883 were 2 µg/mL (≈ 3.87 µM) and 4 µg/mL (≈ 7.74 µM), respectively.
Consider `C[C@H](O)c1nccn1Cc1cc(-c2ccc(C#Cc3ccc(CNC4CCS(=O)(=O)C4)cc3)cc2)on1` (stereo partly drawn) [Example 31], for which the IC50 in assay [1] worked out at 6.06 nM. Further, the figures for the minimal inhibitory concentration (MIC) in the assay on E. coli ATCC 25922 and with K. pneumoniae ATCC13883 were 2 µg/mL (≈ 3.87 µM) and 4 µg/mL (≈ 7.74 µM), respectively.
